Assay results: DBAASP
Values after ≈ are worked out from the molar mass of the structure shown. Blank lines part the entries; values can stand above or below the compound they belong to.

Columns and labels:
Assay in all cases: ≥ marks a high value that may be exact or a test limit, other limits are often not marked, values filed in µg/mL are converted to µM
[1] = test system: Enterobacter cloacae 218R
[2] = test system: Enterococcus faecalis ATCC 29212
[3] = test system: Enterococcus faecalis W61950
[4] = test system: Enterococcus faecalis f43559
[5] = test system: Enterococcus faecium mic80
[6] = test system: Enterococcus faecium t62764
[7] = test system: Escherichia coli ESBL 63103
[8] = test system: Escherichia coli ESBL 64771
[9] = test system: Klebsiella pneumoniae ESBL 61962
[10] = test system: Klebsiella pneumoniae ESBL 63575
[11] = test system: Pseudomonas aeruginosa 198
[12] = test system: Pseudomonas aeruginosa 213
Pseudomonas aeruginosa 9 = test system: Pseudomonas aeruginosa 9
[13] = test system: Pseudomonas aeruginosa H1027
[14] = test system: Pseudomonas aeruginosa H1030
[15] = test system: Pseudomonas aeruginosa LES400
[16] = test system: Pseudomonas aeruginosa PAO1 H103
[17] = test system: Staphylococcus aureus ATCC 25923
[18] = test system: Staphylococcus aureus C623
[19] = test system: Stenotrophomonas maltophilia ATCC 13637
[20] = test system: Escherichia coli PCM 2057
[21] = test system: Staphylococcus aureus PCM 1944
Escherichia coli BL21AI = test system: Escherichia coli BL21AI
Escherichia coli D31 = test system: Escherichia coli D31
Escherichia coli DC2 = test system: Escherichia coli DC2
[22] = test system: Escherichia coli DSM 1103
[23] = test system: Klebsiella pneumoniae DSM 681
[24] = test system: Klebsiella pneumoniae K6 ATCC 700603
[25] = test system: Micrococcus luteus ATCC 10240
[26] = test system: Salmonella enterica subsp. enterica serovar Typhimurium ATCC 700408
[27] = test system: Aeromonas salmonicida NCIMB 1102
[28] = test system: Bacillus subtilis IAM 1026
[29] = test system: Escherichia coli JCM 1649
[30] = test system: Photobacterium damselae subsp. piscicida Sp 9587
Salmonella typhimurium = test system: Salmonella typhimurium
[31] = test system: Shewanella putrefaciens IAM 1509
[32] = test system: Staphylococcus aureus IAM 1011
[33] = test system: Vibrio anguillarum NCIMB 829
[34] = test system: Vibrio parahaemolyticus Vp+1

MIC [1]: ≥ 186 µM | MIC [2]: > 186 µM | MIC [3]: ≥ 186 µM | MIC [4]: ≥ 186 µM | MIC [5]: ≥ 93.6 µM | MIC [6]: ≥ 93.6 µM | MIC [7]: ≥ 186 µM | MIC [8]: ≥ 93.6 µM | MIC [9]: ≥ 186 µM | MIC [10]: ≥ 186 µM | MIC [11]: ≥ 186 µM | MIC [12]: ≥ 186 µM | MIC (Pseudomonas aeruginosa 9): ≥ 186 µM | MIC [13]: ≥ 93.6 µM | MIC [14]: ≥ 186 µM | MIC [15]: ≥ 186 µM | MIC [16]: ≥ 186 µM | MIC [17]: 186 µM (≈ 211 µg/mL) | MIC [18]: ≥ 186 µM | MIC [19]: ≥ 46.8 µM
Compound: CC(C)[C@H](NC(=O)[C@H](CCCN=C(N)N)NC(=O)[C@H](CCCCN)NC(=O)[C@@H](NC(=O)[C@H](Cc1ccccc1)NC(=O)[C@H](CCCCN)NC(=O)[C@H](Cc1c[nH]c2ccccc12)NC(=O)[C@@H](NC(=O)[C@H](C)N)C(C)C)C(C)C)C(=O)O [AVWKFVKRV]

MIC [20]: ≥ 1560 µM | MIC [21]: ≥ 1560 µM
Compound: C[C@@H]1NC(=O)[C@H](C)NC(=O)[C@H](CCCCN)NC(=O)[C@@H](N)CSSC[C@@H](C(=O)O)NC(=O)[C@H](Cc2ccccc2)NC1=O [CKAAFC]

MIC (Escherichia coli BL21AI): 0.229 µM (≈ 0.49 µg/mL) | MIC (Escherichia coli D31): 30 µM (≈ 64 µg/mL) | MIC (Escherichia coli DC2): 3.66 µM (≈ 7.81 µg/mL) | MIC [22]: 0.459 µM (≈ 0.98 µg/mL) | MIC [23]: 7.31 µM (≈ 15.6 µg/mL) | MIC [24]: 3.74 µM (≈ 8 µg/mL) | MIC [25]: 0.459 µM (≈ 0.98 µg/mL) | MIC [26]: 0.936 µM (≈ 2 µg/mL)
Compound: CC[C@H](C)[C@H](NC(=O)[C@H](CCCN=C(N)N)NC(=O)[C@@H]1CCCN1C(=O)[C@H](Cc1cnc[nH]1)NC(=O)[C@@H]1CCCN1C(=O)[C@@H]1CCCN1C(=O)[C@H](CCCN=C(N)N)NC(=O)[C@@H]1CCCN1C(=O)[C@H](CCCN=C(N)N)NC(=O)[C@@H]1CCCN1C(=O)[C@@H](NC(=O)[C@H](Cc1ccc(O)cc1)NC(=O)[C@@H](NC(=O)[C@@H]1CCCN1C(=O)[C@H](CCCN=C(N)N)NC(=O)[C@H](CC(N)=O)NC(=O)[C@H](CC(N)=O)NC(=O)CN)C(C)C)[C@@H](C)CC)C(N)=O [GNNRPVYIPRPRPPHPRI]

MIC [27]: 17.9 µM (≈ 50 µg/mL) | MIC [28]: 8.96 µM (≈ 25 µg/mL) | MIC [29]: 17.9 µM (≈ 50 µg/mL) | MIC [30]: 4.48 µM (≈ 12.5 µg/mL) | MIC (Salmonella typhimurium): 17.9 µM (≈ 50 µg/mL) | MIC [31]: 4.48 µM (≈ 12.5 µg/mL) | MIC [32]: 2.24 µM (≈ 6.25 µg/mL) | MIC [33]: 17.9 µM (≈ 50 µg/mL)
Compound: CC[C@H](C)[C@H](NC(=O)[C@H](CC(N)=O)NC(=O)[C@H](CO)NC(=O)[C@H](CC(C)C)NC(=O)[C@H](C)NC(=O)CNC(=O)[C@H](Cc1ccccc1)NC(=O)[C@H](CC(C)C)NC(=O)[C@H](CO)NC(=O)[C@@H]1CCCN1C(=O)[C@@H](NC(=O)[C@H](CC(C)C)NC(=O)[C@H](CCCCN)NC(=O)[C@@H](NC(=O)[C@H](CC(C)C)NC(=O)[C@H](Cc1ccccc1)NC(=O)CNC(=O)[C@H](Cc1ccccc1)NC(=O)[C@@H](N)CC(C)C)[C@@H](C)CC)[C@@H](C)CC)C(=O)NCC(=O)N[C@@H](CCCN=C(N)N)C(=O)N[C@@H](CC(N)=O)C(=O)N[C@@H](CCCN=C(N)N)C(=O)N[C@@H](CC(N)=O)C(=O)N[C@@H](CCC(N)=O)C(=O)O [LFGFLIKLIPSLFGALSNIGRNRNQ]
MIC [34]: 8.96 µM (≈ 25 µg/mL)

MIC [20]: ≥ 491 µM | MIC [21]: ≥ 491 µM
Compound: CC[C@H](C)[C@H](NC(=O)[C@@H](NC(=O)[C@@H](N)CO)C(C)C)C(=O)NCC(=O)N[C@H]1CSSC[C@@H](C(=O)N[C@@H](Cc2ccccc2)C(=O)N[C@H](C(=O)N[C@@H](CCCCN)C(N)=O)C(C)C)NC(=O)[C@@H]2CCCN2C(=O)[C@H](CCCN=C(N)N)NC(=O)[C@@H]2CCCN2C(=O)[C@@H]2CCCN2C(=O)[C@H]([C@@H](C)CC)NC(=O)[C@H](CO)NC(=O)[C@H](Cc2ccccc2)NC(=O)[C@H]([C@@H](C)O)NC(=O)[C@H](Cc2c[nH]c3ccccc23)NC1=O [SVIGCWTFSIPPRPCFVK]
